# Laboratory results taken from PubChem BioAssay AID1963829 (Molecular Pharmacology Branch, DTP, NCI, 2024).
# System: 935938-334-R-J1-PDC complex spheroid viability
# Assay: Anticancer human tumor 935938-334-R-J1-PDC patient-derived small intestine adenocarcinoma cell line growth inhibition [POLQ]
# Conditions: for IC50: curve of first compound; for viability, T/C: stronger effect = lower value
# In short: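 Patient-derived tumour cells were co-cultured with HUVEC and mesenchymal stem cells as multicellular spheroids at 37 °C. They were treated with POLQ inhibitors (novobiocin, ART-558, RP6685) alone or combined with other agents. Top concentrations were at or near clinical Cmax (otherwise 10 microM; SN-38 at 1 microM), decreasing in half-log steps.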
# [1] = second compound 0.0316 µM, first compound 0.0316 µM
# [2] = second compound 0.0316 µM, first compound 0.1 µM
# [3] = second compound 0.0316 µM, first compound 0.316 µM
# [4] = second compound 0.0316 µM, first compound 1 µM
# [5] = second compound 0.0316 µM, first compound 3.16 µM
# [6] = second compound 0.0316 µM, first compound 10 µM
# [7] = second compound 0.1 µM, first compound 0.0316 µM
# [8] = second compound 0.1 µM, first compound 0.1 µM
# [9] = second compound 0.1 µM, first compound 0.316 µM
# [10] = second compound 0.1 µM, first compound 1 µM
# [11] = second compound 0.1 µM, first compound 3.16 µM
# [12] = second compound 0.1 µM, first compound 10 µM
# [13] = second compound 0.316 µM, first compound 0.0316 µM
# [14] = second compound 0.316 µM, first compound 0.1 µM
# [15] = second compound 0.316 µM, first compound 0.316 µM
# [16] = second compound 0.316 µM, first compound 1 µM
# [17] = second compound 0.316 µM, first compound 3.16 µM
# [18] = second compound 0.316 µM, first compound 10 µM
# [19] = second compound 1 µM, first compound 0.0316 µM
# [20] = second compound 1 µM, first compound 0.1 µM
# [21] = second compound 1 µM, first compound 0.316 µM
# [22] = second compound 1 µM, first compound 1 µM
# [23] = second compound 1 µM, first compound 3.16 µM
# [24] = second compound 1 µM, first compound 10 µM
# [25] = second compound 3.16 µM, first compound 0.0316 µM
# [26] = second compound 3.16 µM, first compound 0.1 µM
# [27] = second compound 3.16 µM, first compound 0.316 µM
# [28] = second compound 3.16 µM, first compound 1 µM
# [29] = second compound 3.16 µM, first compound 3.16 µM
# [30] = second compound 3.16 µM, first compound 10 µM
# [31] = second compound 10 µM, first compound 0.0316 µM
# [32] = second compound 10 µM, first compound 0.1 µM
# [33] = second compound 10 µM, first compound 0.316 µM
# [34] = second compound 10 µM, first compound 1 µM
# [35] = second compound 10 µM, first compound 3.16 µM
# [36] = second compound 10 µM, first compound 10 µM
# 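Note: spheroids exposed to drugs for seven days before viability read.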
# 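Throughout, for viability, T/C: 100% = DMSO vehicle control wells.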
smiles,measurement,setting,value
Nc1ccn(C2OC(CO)C(O)C2(F)F)c(=O)n1 (stereo not given) + Nc1ccc(C#CCN(C(=O)Cc2ncc(C(F)(F)F)cc2C(F)(F)F)c2ccc(F)cc2)nn1,IC50,second compound 0.0316 µM,< 0.0316 µM
same,IC50,second compound 0.1 µM,< 0.0316 µM
same,IC50,second compound 0.316 µM,< 0.0316 µM
same,IC50,second compound 1 µM,< 0.0316 µM
same,IC50,second compound 3.16 µM,< 0.0316 µM
same,IC50,second compound 10 µM,< 0.0316 µM
same,"viability, T/C",[1],35.4%
same,"viability, T/C",[2],27.6%
same,"viability, T/C",[3],17.3%
same,"viability, T/C",[4],17.3%
same,"viability, T/C",[5],18.2%
same,"viability, T/C",[6],16.8%
same,"viability, T/C",[7],33.2%
same,"viability, T/C",[8],24.4%
same,"viability, T/C",[9],16.5%
same,"viability, T/C",[10],17.5%
same,"viability, T/C",[11],19.1%
same,"viability, T/C",[12],13.9%
same,"viability, T/C",[13],31.1%
same,"viability, T/C",[14],24.8%
same,"viability, T/C",[15],23.2%
same,"viability, T/C",[16],19.6%
same,"viability, T/C",[17],17.1%
same,"viability, T/C",[18],14.4%
same,"viability, T/C",[19],33.2%
same,"viability, T/C",[20],23.4%
same,"viability, T/C",[21],18.2%
same,"viability, T/C",[22],19.1%
same,"viability, T/C",[23],16.6%
same,"viability, T/C",[24],15.3%
same,"viability, T/C",[25],30.2%
same,"viability, T/C",[26],25.6%
same,"viability, T/C",[27],20.2%
same,"viability, T/C",[28],21.2%
same,"viability, T/C",[29],17.5%
same,"viability, T/C",[30],17.1%
same,"viability, T/C",[31],42.9%
same,"viability, T/C",[32],31.6%
same,"viability, T/C",[33],30.1%
same,"viability, T/C",[34],20.6%
same,"viability, T/C",[35],19.8%
same,"viability, T/C",[36],19.2%
CC1COCCN1c1cc(C2(S(C)(=N)=O)CC2)nc(-c2ccnc3[nH]ccc23)n1 (stereo not given) + COC1C(OC(N)=O)C(O)C(Oc2ccc3c(O)c(NC(=O)c4ccc(O)c(CC=C(C)C)c4)c(=O)oc3c2C)OC1(C)C,IC50,second compound 0.0316 µM,2.74 µM
same,IC50,second compound 0.1 µM,2.13 µM
same,IC50,second compound 0.316 µM,2.22 µM
same,IC50,second compound 1 µM,3.88 µM
same,IC50,second compound 3.16 µM,2.44 µM
same,IC50,second compound 10 µM,2.13 µM
same,"viability, T/C",[1],111%
same,"viability, T/C",[2],85.8%
same,"viability, T/C",[3],85.7%
same,"viability, T/C",[4],59.5%
same,"viability, T/C",[5],58.6%
same,"viability, T/C",[6],23.1%
same,"viability, T/C",[7],122%
same,"viability, T/C",[8],102%
same,"viability, T/C",[9],82.3%
same,"viability, T/C",[10],67.8%
same,"viability, T/C",[11],43.1%
same,"viability, T/C",[12],17.7%
same,"viability, T/C",[13],104%
same,"viability, T/C",[14],69%
same,"viability, T/C",[15],81.9%
same,"viability, T/C",[16],73%
same,"viability, T/C",[17],38.4%
same,"viability, T/C",[18],17.3%
same,"viability, T/C",[19],96.1%
same,"viability, T/C",[20],80.3%
same,"viability, T/C",[21],84.8%
same,"viability, T/C",[22],64.8%
same,"viability, T/C",[23],65.8%
same,"viability, T/C",[24],14.9%
same,"viability, T/C",[25],86.2%
same,"viability, T/C",[26],87.8%
same,"viability, T/C",[27],90.2%
same,"viability, T/C",[28],68.4%
same,"viability, T/C",[29],45.1%
same,"viability, T/C",[30],16.3%
same,"viability, T/C",[31],105%
same,"viability, T/C",[32],82.5%
same,"viability, T/C",[33],95.2%
same,"viability, T/C",[34],58.1%
same,"viability, T/C",[35],44.3%
same,"viability, T/C",[36],17.3%
COc1ccc([C@@H](O)c2cc(-c3ncnc4cc(N5CCOCC5)ccc34)c(F)cc2Cl)nn1 + Nc1ccc(C#CCN(C(=O)Cc2ncc(C(F)(F)F)cc2C(F)(F)F)c2ccc(F)cc2)nn1,IC50,second compound 0.0316 µM,6.57 µM
same,IC50,second compound 0.1 µM,5.84 µM
same,IC50,second compound 0.316 µM,5.43 µM
same,IC50,second compound 1 µM,5.24 µM
same,IC50,second compound 3.16 µM,3.68 µM
same,IC50,second compound 10 µM,2.04 µM
same,"viability, T/C",[1],87.1%
same,"viability, T/C",[2],81.3%
same,"viability, T/C",[3],98.4%
same,"viability, T/C",[4],102%
same,"viability, T/C",[5],59.2%
same,"viability, T/C",[6],44.7%
same,"viability, T/C",[7],120%
same,"viability, T/C",[8],98.5%
same,"viability, T/C",[9],105%
same,"viability, T/C",[10],109%
same,"viability, T/C",[11],73.7%
same,"viability, T/C",[12],29.4%
same,"viability, T/C",[13],106%
same,"viability, T/C",[14],106%
same,"viability, T/C",[15],110%
same,"viability, T/C",[16],84.9%
same,"viability, T/C",[17],74.8%
same,"viability, T/C",[18],25%
same,"viability, T/C",[19],118%
same,"viability, T/C",[20],96.6%
same,"viability, T/C",[21],106%
same,"viability, T/C",[22],82.3%
same,"viability, T/C",[23],70.1%
same,"viability, T/C",[24],28.5%
same,"viability, T/C",[25],109%
same,"viability, T/C",[26],98.9%
same,"viability, T/C",[27],96.5%
same,"viability, T/C",[28],80.5%
same,"viability, T/C",[29],52.1%
same,"viability, T/C",[30],29.6%
same,"viability, T/C",[31],81.1%
same,"viability, T/C",[32],83.6%
same,"viability, T/C",[33],118%
same,"viability, T/C",[34],60.5%
same,"viability, T/C",[35],54%
same,"viability, T/C",[36],33.1%
O=c1[nH]cc(F)c(=O)[nH]1 + COC1C(OC(N)=O)C(O)C(Oc2ccc3c(O)c(NC(=O)c4ccc(O)c(CC=C(C)C)c4)c(=O)oc3c2C)OC1(C)C,IC50,second compound 0.0316 µM,> 10 µM
same,IC50,second compound 0.1 µM,> 10 µM
same,IC50,second compound 0.316 µM,4.82 µM
same,IC50,second compound 1 µM,> 10 µM
same,IC50,second compound 3.16 µM,8.13 µM
same,IC50,second compound 10 µM,> 10 µM
same,"viability, T/C",[1],85.7%
same,"viability, T/C",[2],96.3%
same,"viability, T/C",[3],76.8%
same,"viability, T/C",[4],71.9%
same,"viability, T/C",[5],67.4%
same,"viability, T/C",[6],57%
same,"viability, T/C",[7],79.4%
same,"viability, T/C",[8],103%
same,"viability, T/C",[9],83.2%
same,"viability, T/C",[10],63%
same,"viability, T/C",[11],63.3%
same,"viability, T/C",[12],55.9%
same,"viability, T/C",[13],103%
same,"viability, T/C",[14],76.7%
same,"viability, T/C",[15],71.9%
same,"viability, T/C",[16],72.9%
same,"viability, T/C",[17],60.5%
same,"viability, T/C",[18],36.5%
same,"viability, T/C",[19],93%
same,"viability, T/C",[20],96.4%
same,"viability, T/C",[21],80.9%
same,"viability, T/C",[22],52.8%
same,"viability, T/C",[23],64.5%
same,"viability, T/C",[24],51.1%
same,"viability, T/C",[25],87.8%
same,"viability, T/C",[26],82.5%
same,"viability, T/C",[27],73.3%
same,"viability, T/C",[28],64.4%
same,"viability, T/C",[29],58%
same,"viability, T/C",[30],48%
same,"viability, T/C",[31],76.6%
same,"viability, T/C",[32],82.4%
same,"viability, T/C",[33],91.5%
same,"viability, T/C",[34],67.3%
same,"viability, T/C",[35],52.3%
same,"viability, T/C",[36],51.3%
CC1COCCN1c1cc(C2(O)CC3CCC(C2)O3)c2cnn(-c3ccn[nH]3)c2n1 (stereo not given) + Nc1ccc(C#CCN(C(=O)Cc2ncc(C(F)(F)F)cc2C(F)(F)F)c2ccc(F)cc2)nn1,IC50,second compound 0.0316 µM,0.0747 µM
same,IC50,second compound 0.1 µM,0.171 µM
same,IC50,second compound 0.316 µM,0.102 µM
same,IC50,second compound 1 µM,0.157 µM
same,IC50,second compound 3.16 µM,0.125 µM
same,IC50,second compound 10 µM,0.122 µM
same,"viability, T/C",[1],71.3%
same,"viability, T/C",[2],42.2%
same,"viability, T/C",[3],28%
same,"viability, T/C",[4],19.2%
same,"viability, T/C",[5],15.8%
same,"viability, T/C",[6],12.8%
same,"viability, T/C",[7],83.8%
same,"viability, T/C",[8],62.7%
same,"viability, T/C",[9],35.5%
same,"viability, T/C",[10],18.7%
same,"viability, T/C",[11],15.4%
same,"viability, T/C",[12],12.5%
same,"viability, T/C",[13],107%
same,"viability, T/C",[14],44.9%
same,"viability, T/C",[15],34.7%
same,"viability, T/C",[16],19.6%
same,"viability, T/C",[17],18.1%
same,"viability, T/C",[18],9.14%
same,"viability, T/C",[19],75.9%
same,"viability, T/C",[20],62.8%
same,"viability, T/C",[21],29.9%
same,"viability, T/C",[22],22.5%
same,"viability, T/C",[23],15.3%
same,"viability, T/C",[24],9.68%
same,"viability, T/C",[25],99.3%
same,"viability, T/C",[26],55.3%
same,"viability, T/C",[27],28.2%
same,"viability, T/C",[28],21.3%
same,"viability, T/C",[29],16.1%
same,"viability, T/C",[30],11.8%
same,"viability, T/C",[31],94.7%
same,"viability, T/C",[32],54.4%
same,"viability, T/C",[33],29.5%
same,"viability, T/C",[34],15.7%
same,"viability, T/C",[35],18.7%
same,"viability, T/C",[36],10.8%
